Test results as given in ChEMBL document CHEMBL1201862, “PubChem BioAssay data set” (2004).
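Five concentrations, 48 hours, 96-well plates. Here, GI50 denotes the concentration required for 50% inhibition of growth.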 Active and inactive are the calls of the source. No stated cut-off is given here; in the data, active = GI50 up to about 1.1 µM and inactive = higher.

How the values were obtained:
Test in all cases: inhibition of tumour cell growth, NCI panel, 48 h
A498 = system: A498
SK-MEL-2 = system: SK-MEL-2
HCT-116 = system: HCT-116
T47D = system: T47D
SK-OV-3 = system: SK-OV-3
ACHN = system: ACHN
HOP-92 = system: HOP-92
SR = system: SR
SK-MEL-5 = system: SK-MEL-5
SW-620 = system: SW-620
NCI-H460 = system: NCI-H460
SN12C = system: SN12C
MDA-MB-231 = system: MDA-MB-231
K562 = system: K562
OVCAR-8 = system: OVCAR-8
COLO 205 = system: COLO 205
A549 = system: A549
SF-295 = system: SF-295
NCI-H226 = system: NCI-H226

Measured: GI50

O=C1/C(=C\c2cccc(Oc3ccccc3)c2)S(=O)(=O)C(c2ccccc2)N1c1cccc(Cl)c1 (stereo not given)
inactive: A498 > 100 µM | SK-MEL-2 > 100 µM | HCT-116 29.4 µM | T47D 46.8 µM | SK-OV-3 66.4 µM | ACHN 71.8 µM | HOP-92 27.7 µM | SR 20.9 µM | SK-MEL-5 43.9 µM | SW-620 25.1 µM | NCI-H460 88.3 µM | SN12C 54.8 µM | MDA-MB-231 > 100 µM | K562 26.4 µM | OVCAR-8 25.2 µM | COLO 205 69.8 µM | A549 > 100 µM | SF-295 39.4 µM

CN(C)CCCN1c2ccccc2CCc2cc([N+](=O)[O-])ccc21
inactive: A498 25.5 µM | SK-MEL-2 21.1 µM | HCT-116 20.5 µM | T47D 18.7 µM | ACHN 29.4 µM | NCI-H226 24 µM | SR 32.1 µM | SK-MEL-5 15.8 µM | NCI-H460 20 µM | SN12C 22.9 µM | MDA-MB-231 22.2 µM | K562 27.2 µM | OVCAR-8 24.6 µM | COLO 205 21 µM | A549 24.6 µM | SF-295 18.9 µM

c1csc(-c2cc(-c3ccsc3)cs2)c1
inactive: A498 > 100 µM | SK-MEL-2 98.6 µM | HCT-116 > 100 µM | T47D > 100 µM | SK-OV-3 33.8 µM | ACHN > 100 µM | HOP-92 > 100 µM | SR 14.4 µM | SK-MEL-5 > 100 µM | SW-620 > 100 µM | NCI-H460 > 100 µM | SN12C > 100 µM | MDA-MB-231 > 100 µM | K562 > 100 µM | COLO 205 > 100 µM | A549 44.8 µM | SF-295 32.1 µM

CSc1nc(=O)c2nc(-c3cccs3)c(-c3cccs3)nc2n1C
inactive: A498 32.3 µM | SK-MEL-2 49.2 µM | HCT-116 > 100 µM | T47D 18.7 µM | SK-OV-3 26.8 µM | ACHN 37.7 µM | HOP-92 28.8 µM | SR > 100 µM | SK-MEL-5 > 100 µM | SW-620 > 100 µM | NCI-H460 > 100 µM | SN12C 43.6 µM | MDA-MB-231 97.7 µM | K562 > 100 µM | OVCAR-8 29.3 µM | COLO 205 > 100 µM | A549 44.8 µM | SF-295 32.7 µM

O=C(O)c1cccc(S(=O)(=O)NN2C(=O)CSC2c2ccccc2Cl)c1 (stereo not given)
inactive: SK-MEL-2 > 100 µM | HCT-116 > 100 µM | T47D > 100 µM | SK-OV-3 > 100 µM | ACHN > 100 µM | HOP-92 > 100 µM | NCI-H226 58.3 µM | SR 4.09 µM | SK-MEL-5 > 100 µM | SW-620 > 100 µM | NCI-H460 > 100 µM | SN12C > 100 µM | MDA-MB-231 > 100 µM | K562 > 100 µM | OVCAR-8 > 100 µM | COLO 205 > 100 µM | A549 > 100 µM | SF-295 > 100 µM

[N-]=[N+]=CC(=O)C1CCN(c2ccccc2)C1=O (stereo not given)
inactive: A498 > 10 µM | SK-MEL-2 > 10 µM | HCT-116 > 10 µM | T47D > 10 µM | SK-OV-3 > 10 µM | ACHN > 10 µM | NCI-H226 > 10 µM | SR > 10 µM | SK-MEL-5 > 10 µM | SW-620 > 10 µM | NCI-H460 > 10 µM | SN12C > 10 µM | MDA-MB-231 > 10 µM | K562 > 10 µM | OVCAR-8 > 10 µM | COLO 205 > 10 µM | A549 > 10 µM | SF-295 > 10 µM
